Source: patent US10654867B2 (Genentech, Inc., priority 2016, dated 2020)

How the values were obtained:
[1] = target: T1, estrogen receptor alpha (ESR1) in MCF7 breast cancer cells (Homo sapiens, UniProt P03372); assay: Breast Cancer Cell ERa High Content Fluorescence Imaging Degradation Assay (ER-alpha MCF7 HCS); format: cell-based; parameters: endogenous in cells; host or cells: MCF7 breast cancer cells; key to ERalpha (WT) MCF7HCS (Sinf): % change in ERα level; DMSO = 0%, fulvestrant = 100% change; settings: 4 hours, plateau of the maximal effect; for ER-alpha MCF7HCS Sinf: DMSO and fulvestrant define 0% and 100% change in ESR1, Table 1a; for ERalpha (WT) MCF7HCS (Sinf): DMSO and fulvestrant define 0% and 100% change in ESR1, Table 1b
T1 sequence (P03372 1-595): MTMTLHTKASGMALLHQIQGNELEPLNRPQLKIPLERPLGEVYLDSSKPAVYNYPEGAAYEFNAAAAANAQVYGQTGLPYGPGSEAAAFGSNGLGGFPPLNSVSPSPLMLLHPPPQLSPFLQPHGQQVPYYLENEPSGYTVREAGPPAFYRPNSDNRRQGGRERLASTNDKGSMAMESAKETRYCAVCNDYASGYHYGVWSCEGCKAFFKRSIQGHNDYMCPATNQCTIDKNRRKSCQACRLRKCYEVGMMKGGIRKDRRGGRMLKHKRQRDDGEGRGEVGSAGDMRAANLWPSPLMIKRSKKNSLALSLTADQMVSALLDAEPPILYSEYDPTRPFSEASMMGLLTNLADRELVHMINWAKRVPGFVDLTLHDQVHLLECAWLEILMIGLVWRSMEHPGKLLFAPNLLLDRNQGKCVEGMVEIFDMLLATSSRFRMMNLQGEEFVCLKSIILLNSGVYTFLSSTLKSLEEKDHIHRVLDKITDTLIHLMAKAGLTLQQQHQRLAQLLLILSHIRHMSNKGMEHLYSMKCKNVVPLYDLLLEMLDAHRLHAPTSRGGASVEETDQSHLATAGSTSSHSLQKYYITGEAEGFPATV
Outline: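 MCF7 cells in phenol red-free RPMI with 10% charcoal-stripped FBS were exposed 4 h at 37 °C to 10-point 1.8× dilutions (0.05–835 nM final, 0.84% DMSO); fulvestrant served as control. After fixation, ESR1 was immunostained (F10 mAb, Alexa488) with Hoechst nuclear masking, and nuclear ESR1 fluorescence was quantified by imaging.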

[2] = target: T1, estrogen receptor alpha (ESR1) in MCF7 breast cancer cells; assay: as above; format: cell-based; parameters: MCF7 breast cancer cells were seeded on day 1 at a density of 10,000 cells per well; endogenous in cells; host or cells: MCF7 breast cancer cells; settings: 4 hours, plateau of the maximal effect, DMSO and fulvestrant define 0% and 100% change in ESR1, Table 1b
Procedure: All of the exemplary Formula I, II, and III compounds in Tables 1a and 1b were made and characterized by LCMS [M+H]^+ (liquid chromatography mass spectroscopy) with detection of parent ion. All of the exemplary Formula I, II, and III compounds in Tables 1a and 1b were tested for binding to ERa (Estrogen Receptor alpha) and biological activity according to the assays, protocols, and procedures of Examples 901-907. ER-alpha MCF7 HCS Sinf (%) values in Tables 1a and 1b were measured by the Breast Cancer Cell ERa High Content Fluorescence Imaging Degradation Assay of Example 901. ER-alpha MCF7 HCS EC50 (μM) values in Tables 1a and 1b were measured by the in vitro cell proliferation assays described in Examples 902 and 903. The rat uterine wet weight assays of Examples 906 and 907 allow rapid determination of compound antagonist activity in an ER responsive tissue (immature rat uterus) while competing against the native ER ligand estradiol, i.e. antagonist mode (Ashby, J.; et al (1997) Regulatory toxicology and pharmacology: RTP, 25 (3):226-31). […]
MCF7 breast cancer cells were seeded on day 1 at a density of 10,000 cells per well in 384 well poly-lysine coated tissue culture plate (Greiner # T-3101-4), in 50 μL/well RPMI (phenol red free), 10% FBS (Charcoal stripped), containing L-glutamine. […] Quantitative fluorescence imaging of ESR1 was carried out using a Cellomics Arrayscan V (Thermo). […]

SMILES: C[C@@H]1Cn2c(cc3ccccc32)[C@@H](c2c(F)cc(OC3CN(CCCF)C3)cc2F)N1CC(F)(F)F [Example 141, (1R,3R)-1-(2,6-difluoro-4-((1-(3-fluoropropyl)azetidin-3-yl)oxy)phenyl)-3-methyl-2-(2,2,2-trifluoroethyl)-1,2,3,4-tetrahydropyrazino[1,2-a]indole]
- ER-alpha MCF7HCS Sinf [1]: −103%

SMILES: CC1(C)CN(CC(F)(F)CO)[C@H](c2c(F)cc(NC3CN(CCCF)C3)cc2F)c2[nH]c3ccccc3c21 [Example 142, (R)-3-(1-(2,6-difluoro-4-(1-(3-fluoropropyl)azetidin-3-ylamino)phenyl)-4,4-dimethyl-3,4-dihydro-1H-pyrido[3,4-b]indol-2(9H)-yl)-2,2-difluoropropan-1-ol]
- ER-alpha MCF7HCS Sinf [1]: −96%

SMILES: C[C@@H]1Cn2c(cc3ccccc32)[C@H](c2c(F)cc(NC3CN(CCCF)C3)cc2F)N1CC(F)(F)F [Example 145, N-(3,5-Difluoro-4-((1S,3R)-3-methyl-2-(2,2,2-trifluoroethyl)-1,2,3,4-tetrahydropyrazino[1,2-a]indol-1-yl)phenyl)-1-(3-fluoropropyl)azetidin-3-amine]
- ER-alpha MCF7HCS Sinf [1]: −87%

SMILES: C[C@@H]1Cn2c(cc3ccccc32)[C@@H](c2c(F)cc(NC3CN(CCCF)C3)cc2F)N1CC(F)(F)F [Example 146, N-(3,5-Difluoro-4-((1R,3R)-3-methyl-2-(2,2,2-trifluoroethyl)-1,2,3,4-tetrahydropyrazino[1,2-a]indol-1-yl)phenyl)-1-(3-fluoropropyl)azetidin-3-amine]
- ER-alpha MCF7HCS Sinf [1]: −100%

SMILES: CC1Cc2[nH]c3ccccc3c2C(c2c(F)cc(NC3CN(CCCF)C3)cc2F)N1CCF (stereo not drawn) [Example 149, (□)-N-(3,5-difluoro-4-(2-(2-fluoroethyl)-3-methyl-2,3,4,5-tetrahydro-1H-pyrido[4,3-b]indol-1-yl)phenyl)-1-(3-fluoropropyl) azetidin-3-amine]
- ER-alpha MCF7HCS Sinf [1]: −75%

SMILES: C[C@@H]1Cc2[nH]c3ccccc3c2[C@@H](c2c(F)cc(NC3CN(CCCF)C3)cc2F)N1CC(F)F [Example 150, N-(4-((1S,3R)-2-(2,2-difluoroethyl)-3-methyl-2,3,4,5-tetrahydro-1H-pyrido[4,3-b]indol-1-yl)-3,5-difluorophenyl)-1-(3-fluoropropyl) azetidin-3-amine]
- ER-alpha MCF7HCS Sinf [1]: −99.4%

SMILES: C[C@@H]1Cc2[nH]c3ccccc3c2[C@@H](c2c(F)cc(NC3CN(CCCF)C3)cc2F)N1CC(F)(F)F [Example 152, N-(3,5-difluoro-4-((1S,3R)-3-methyl-2-(2,2,2-trifluoroethyl)-2,3,4,5-tetrahydro-1H-pyrido[4,3-b]indol-1-yl)-phenyl)-1-(3-fluoropropyl) azetidin-3-amine]
- ER-alpha MCF7HCS Sinf [1]: −99%

SMILES: C[C@H]1Cc2[nH]c3ccccc3c2[C@H](c2c(F)cc(NC3CN(CCCF)C3)cc2F)N1CC(F)(F)F [Example 153, N-(3,5-difluoro-4-((1R,3S)-3-methyl-2-(2,2,2-trifluoroethyl)-2,3,4,5-tetrahydro-1H-pyrido[4,3-b]indol-1-yl)-phenyl)-1-(3-fluoropropyl) azetidin-3-amine]
- ER-alpha MCF7HCS Sinf [1]: −30%

SMILES: COc1cc2c3c([nH]c2cn1)[C@@H](c1c(F)cc(NC2CN(CCCF)C2)cc1F)N(CC(F)(F)CO)[C@H](C)C3 [Example 161, 3-((1R,3R)-1-(2,6-Difluoro-4-((1-(3-fluoropropyl)azetidin-3-yl)amino)phenyl)-6-methoxy-3-methyl-3,4-dihydro-1H-pyrrolo[2,3-c:5,4-c′]dipyridin-2(9H)-yl)-2,2-difluoropropan-1-ol]
- ERalpha (WT) MCF7HCS (Sinf) [1]: −97.3

SMILES: C[C@H]1Cc2sc3ccccc3c2[C@H](c2c(F)cc(NC3CN(CCCF)C3)cc2F)N1CC(F)(F)CO [Example 165, 3-((1S,3S)-1-(2,6-difluoro-4-((1-(3-fluoropropyl)azetidin-3-yl)amino)phenyl)-3-methyl-3,4-dihydrobenzo[4,5]thieno[3,2-c]pyridin-2(1H)-yl)-2,2-difluoropropan-1-ol]
- ERalpha (WT) MCF7HCS (Sinf) [1]: −92.3

SMILES: C[C@@H]1Cc2sc3ccccc3c2[C@@H](c2c(F)cc(NC3CN(CCCF)C3)cc2F)N1CC(F)(F)CO [Example 166, 3-((1R,3R)-1-(2,6-difluoro-4-((1-(3-fluoropropyl)azetidin-3-yl)amino)phenyl)-3-methyl-3,4-dihydrobenzo[4,5]thieno[3,2-c]pyridin-2(1H)-yl)-2,2-difluoropropan-1-ol]
- ERalpha (WT) MCF7HCS (Sinf) [1]: −101

SMILES: C[C@@H]1Cc2oc3ccccc3c2[C@@H](c2c(F)cc(OCCN3CC(CF)C3)cc2F)N1CC(F)(F)CO [Example 170]
- ERalpha (WT) MCF7HCS (Sinf) [2]: −93
